From publication PMC4351869 (Journal of neuro-oncology, 2011) come the findings set out here.

One data set has as its system recurrent glioblastoma. The experiment in a line: Phase II trial NABTC 03-02, progression free survival. The format is in vivo, patients. As to conditions: 2000 mg i.v. twice weekly after resection.
The nature of data set [1]: Treatment-related toxicity in the phase II trial. The format is in vivo, patients.
Data set [2] is described as follows: Tumor tissue concentrations of cilengitide at resection, HPLC-MS/MS. It is filed as in vivo, patients. The following applies: human, iv.
The nature of the next data set: clinical. The following applies: human, in vivo, iv.

Each structure is given as a SMILES string.

Consider `CC(C)[C@H]1C(=O)N[C@@H](CCCNC(=N)N)C(=O)NCC(=O)N[C@@H](CC(=O)O)C(=O)N[C@H](Cc2ccccc2)C(=O)N1C` [Cilengitide], for which, in the data set on recurrent glioblastoma (26 patients evaluable for efficacy), the “6-month PFS rate” value is on record as 12%. In the data set on recurrent glioblastoma (Kaplan-Meier, 95% confidence interval 4–16 weeks), the “median PFS” value is 8 weeks. The tolerability result in data set [1] (30 patients, 500 or 2000 mg before surgery, 2000 mg i.v. twice weekly after) was “very well tolerated”. Further, the “dose reductions for toxicity” value in data set [1] (in vivo) is “no dose reductions for toxicity”. In addition, the treatment related deaths result in data set [1] (in vivo) is “no treatment related deaths”. Moreover, the “number of grade 3–4 toxicities” value in data set [1] (mainly lymphopenia, likely related to prior cytotoxic chemotherapy) was 9. Moreover, the tissue level at time at 24 h in data set [2] (500 mg) was found to be 919 ng/g; in data set [2] (2000 mg) it was 1410 ng/g. In addition, the level at 24 h in “clinical” (500 mg) was found to be 333 ng/mL; in the data set “clinical” (2000 mg), 386 ng/mL.
